Where two headings read alike, the source gives them in different places.
Legend:
CCRF-CEM = test: NCI antiproliferative SRB assay, Leukemia panel; assay type: cell-based, Human
HL-60(TB) = test: cells; assay type: cell-based
MOLT-4 = test: NCI antiproliferative SRB assay, Leukemia panel; assay type: cell-based, Human
NCI-H23 = test: NCI antiproliferative SRB assay, Non-Small Cell Lung Cancer panel; assay type: cell-based, Human
NCI-H460 = test: as above; assay type: cell-based, Human
NCI-H522 = test: as above; assay type: cell-based, Human
HCC-2998 = test: NCI antiproliferative SRB assay, Colon Cancer panel; assay type: cell-based, Human
HT29 = test: as above; assay type: cell-based, Human
SW-620 = test: as above; assay type: cell-based, Human
SF-268 = test: NCI antiproliferative SRB assay, CNS Cancer panel; assay type: cell-based, Human
U251 = test: NCI antiproliferative SRB assay, CNS Cancer panel; assay type: cell-based
MALME-3M = test: NCI antiproliferative SRB assay, Melanoma panel; assay type: cell-based, Human
SK-MEL-28 = test: NCI antiproliferative SRB assay, Melanoma panel; assay type: cell-based, Human
UACC-62 = test: NCI antiproliferative SRB assay, Melanoma panel; assay type: cell-based, Human
IGROV1 = test: NCI antiproliferative SRB assay, Ovarian Cancer panel; assay type: cell-based, Human
OVCAR-3 = test: as above; assay type: cell-based, Human
OVCAR-4 = test: as above; assay type: cell-based, Human
OVCAR-5 = test: as above; assay type: cell-based, Human
NCI/ADR-RES = test: as above; assay type: cell-based, Human
SK-OV-3 = test: as above; assay type: cell-based, Human
CAKI-1 = test: NCI antiproliferative SRB assay, Renal Cancer panel; assay type: cell-based, Human
TK-10 = test: as above; assay type: cell-based, Human
UO-31 = test: as above; assay type: cell-based, Human
MCF7 = test: NCI antiproliferative SRB assay, Breast Cancer panel; assay type: cell-based, Human
MDA-MB-231 = test: as above; assay type: cell-based
HS 578T = test: as above; assay type: cell-based, Human
Leukemia cell line panel = test: NCI antiproliferative assay, panel summary; assay type: cell-based, Human; details: for GI50: Homo sapiens
[1] = system: Colon Cancer cell line panel; test: NCI antiproliferative assay, panel summary; assay type: cell-based, Human
Melanoma cell line panel = test: NCI antiproliferative assay, panel summary; assay type: cell-based, Human
[2] = system: Prostate Cancer cell line panel; test: NCI antiproliferative assay, panel summary; assay type: cell-based, Human
[3] = system: Breast Cancer cell line panel; test: NCI antiproliferative assay, panel summary; assay type: cell-based, Human
[4] = Homo sapiens, 5-dose 0.01-100 µM
[5] = Homo sapiens, 5-dose 0.01-100 µM, read-out: LC50 (the source's name)
[6] = Homo sapiens, 5-dose assay, read-out: Sub Panel MID b (mean GI50 of panel)

COc1ccc(NC(=O)n2nc(/C=C/c3ccc(O)c(OC)c3)cc2/C=C/c2ccc(O)c(OC)c2)cc1 [3b]
TGI (CCRF-CEM; 5-dose 0.01-100 µM): 32.7 µM | GI50 (CCRF-CEM; [4]): 2.34 µM | CC50 (CCRF-CEM; [5]): > 100 µM | %GI (CCRF-CEM; one dose 10 µM): 88.23% | GP (growth percent) (CCRF-CEM; one dose 10 µM): 11.77 | TGI (HL-60(TB); 5-dose 0.01-100 µM): 6.69 µM | GI50 (HL-60(TB); [4]): 2.55 µM | CC50 (HL-60(TB); [5]): > 100 µM | %GI (HL-60(TB); one dose 10 µM): 94.68% | GP (growth percent) (HL-60(TB); one dose 10 µM): 5.32 | TGI (MOLT-4; 5-dose 0.01-100 µM): 13.3 µM | GI50 (MOLT-4; [4]): 2.87 µM | CC50 (MOLT-4; [5]): > 100 µM | %GI (MOLT-4; one dose 10 µM): 87.76% | GP (growth percent) (MOLT-4; one dose 10 µM): 12.24 | TGI (NCI-H23; 5-dose 0.01-100 µM): 63.8 µM | GI50 (NCI-H23; [4]): 3.81 µM | CC50 (NCI-H23; [5]): > 100 µM | %GI (NCI-H23; one dose 10 µM): 56.06% | GP (growth percent) (NCI-H23; one dose 10 µM): 43.94 | TGI (NCI-H460; 5-dose 0.01-100 µM): 31.4 µM | GI50 (NCI-H460; [4]): 4.24 µM | CC50 (NCI-H460; [5]): > 100 µM | %GI (NCI-H460; one dose 10 µM): 85.78% | GP (growth percent) (NCI-H460; one dose 10 µM): 14.22 | TGI (NCI-H522; 5-dose 0.01-100 µM): 12.7 µM | GI50 (NCI-H522; [4]): 1.76 µM | CC50 (NCI-H522; [5]): > 100 µM | %GI (NCI-H522; one dose 10 µM): 113.52% | GP (growth percent) (NCI-H522; one dose 10 µM): −13.52 | TGI (HCC-2998; 5-dose 0.01-100 µM): >100 µM | GI50 (HCC-2998; [4]): 5.78 µM | CC50 (HCC-2998; [5]): > 100 µM | %GI (HCC-2998; one dose 10 µM): 25.09% | GP (growth percent) (HCC-2998; one dose 10 µM): 74.91 | TGI (HT29; 5-dose 0.01-100 µM): 11.0 µM | GI50 (HT29; Homo sapiens, HT-29, 5-dose 0.01-100 µM): 3.52 µM | CC50 (HT29; Homo sapiens, HT-29, 5-dose 0.01-100 µM, read-out: LC50 (the source's name)): > 100 µM | %GI (HT29; one dose 10 µM): 68.74% | GP (growth percent) (HT29; one dose 10 µM): 31.26 | TGI (SW-620; 5-dose 0.01-100 µM): 61.6 µM | GI50 (SW-620; [4]): 5.51 µM | CC50 (SW-620; [5]): > 100 µM | %GI (SW-620; one dose 10 µM): 72.90% | GP (growth percent) (SW-620; one dose 10 µM): 27.10 | TGI (SF-268; 5-dose 0.01-100 µM): 36.4 µM | GI50 (SF-268; [4]): 3.21 µM | CC50 (SF-268; [5]): > 100 µM | %GI (SF-268; one dose 10 µM): 58.19% | GP (growth percent) (SF-268; one dose 10 µM): 41.81 | GI50 (U251; Homo sapiens, U-251): 3.55 µM | CC50 (U251; Homo sapiens, U-251, U251, 5-dose 0.01-100 µM, read-out: LC50 (the source's name)): > 100 µM | TGI (U251; U251, 5-dose 0.01-100 µM): 20.9 µM | %GI (U251; U251, one dose 10 µM): 73.97% | GP (growth percent) (U251; U251, one dose 10 µM): 26.03 | TGI (MALME-3M; 5-dose 0.01-100 µM): 38.6 µM | GI50 (MALME-3M; [4]): 3.66 µM | CC50 (MALME-3M; [5]): > 100 µM | %GI (MALME-3M; one dose 10 µM): 48.14% | GP (growth percent) (MALME-3M; one dose 10 µM): 51.86 | TGI (SK-MEL-28; 5-dose 0.01-100 µM): 92.7 µM | GI50 (SK-MEL-28; [4]): 3.52 µM | CC50 (SK-MEL-28; [5]): > 100 µM | %GI (SK-MEL-28; one dose 10 µM): 65.47% | GP (growth percent) (SK-MEL-28; one dose 10 µM): 34.53 | TGI (UACC-62; 5-dose 0.01-100 µM): 6.91 µM | GI50 (UACC-62; [4]): 2.14 µM | CC50 (UACC-62; [5]): > 100 µM | %GI (UACC-62; one dose 10 µM): 74.53% | GP (growth percent) (UACC-62; one dose 10 µM): 25.47 | TGI (IGROV1; 5-dose 0.01-100 µM): 57.0 µM | GI50 (IGROV1; Homo sapiens, IGROV-1, 5-dose 0.01-100 µM): 4.49 µM | CC50 (IGROV1; Homo sapiens, IGROV-1, 5-dose 0.01-100 µM, read-out: LC50 (the source's name)): > 100 µM | %GI (IGROV1; one dose 10 µM): 65.61% | GP (growth percent) (IGROV1; one dose 10 µM): 34.39 | TGI (OVCAR-3; 5-dose 0.01-100 µM): 8.40 µM | GI50 (OVCAR-3; [4]): 2.98 µM | CC50 (OVCAR-3; [5]): > 100 µM | %GI (OVCAR-3; one dose 10 µM): 86.38% | GP (growth percent) (OVCAR-3; one dose 10 µM): 13.62 | TGI (OVCAR-4; 5-dose 0.01-100 µM): 90.7 µM | GI50 (OVCAR-4; [4]): 5.72 µM | CC50 (OVCAR-4; [5]): > 100 µM | %GI (OVCAR-4; one dose 10 µM): 48.49% | GP (growth percent) (OVCAR-4; one dose 10 µM): 51.51 | TGI (OVCAR-5; 5-dose 0.01-100 µM): 54.1 µM | GI50 (OVCAR-5; [4]): 18.8 µM | CC50 (OVCAR-5; [5]): > 100 µM | %GI (OVCAR-5; one dose 10 µM): 37.70% | GP (growth percent) (OVCAR-5; one dose 10 µM): 62.30 | TGI (NCI/ADR-RES; 5-dose 0.01-100 µM): >100 µM | GI50 (NCI/ADR-RES; [4]): 4.28 µM | CC50 (NCI/ADR-RES; [5]): > 100 µM | %GI (NCI/ADR-RES; one dose 10 µM): 76.11% | GP (growth percent) (NCI/ADR-RES; one dose 10 µM): 23.89 | TGI (SK-OV-3; 5-dose 0.01-100 µM): 27.5 µM | GI50 (SK-OV-3; [4]): 3.66 µM | CC50 (SK-OV-3; [5]): > 100 µM | %GI (SK-OV-3; one dose 10 µM): 39.26% | GP (growth percent) (SK-OV-3; one dose 10 µM): 60.74 | TGI (CAKI-1; 5-dose 0.01-100 µM): >100 µM | GI50 (CAKI-1; [4]): 3.6 µM | CC50 (CAKI-1; [5]): > 100 µM | %GI (CAKI-1; one dose 10 µM): 61.94% | GP (growth percent) (CAKI-1; one dose 10 µM): 38.06 | TGI (TK-10; 5-dose 0.01-100 µM): 95.3 µM | GI50 (TK-10; [4]): 10.2 µM | CC50 (TK-10; [5]): > 100 µM | %GI (TK-10; one dose 10 µM): 36.16% | GP (growth percent) (TK-10; one dose 10 µM): 63.84 | TGI (UO-31; 5-dose 0.01-100 µM): 36.4 µM | GI50 (UO-31; [4]): 1.52 µM | LC50 (50% lethal concentration) (UO-31; [4]): > 100 µM | %GI (UO-31; one dose 10 µM): 77.33% | GP (growth percent) (UO-31; one dose 10 µM): 22.67 | TGI (MCF7; 5-dose 0.01-100 µM): 17.0 µM | GI50 (MCF7; [4]): 3.3 µM | CC50 (MCF7; [5]): > 100 µM | %GI (MCF7; one dose 10 µM): 84.37% | GP (growth percent) (MCF7; one dose 10 µM): 15.63 | TGI (MDA-MB-231; 5-dose 0.01-100 µM): 83.5 µM | GI50 (MDA-MB-231; Homo sapiens): 4.94 µM | CC50 (MDA-MB-231; [5]): > 100 µM | %GI (MDA-MB-231; one dose 10 µM): 63.47% | GP (growth percent) (MDA-MB-231; one dose 10 µM): 36.53 | TGI (HS 578T; 5-dose 0.01-100 µM): 61.9 µM | GI50 (HS 578T; [4]): 6.77 µM | CC50 (HS 578T; [5]): > 100 µM | %GI (HS 578T; one dose 10 µM): 71.29% | GP (growth percent) (HS 578T; one dose 10 µM): 28.71 | Mean % GI (Leukemia cell line panel; 10 µM): 88.02% | Selectivity Ratio (MID a:MID b) (Leukemia cell line panel; 5-dose assay): 1.89 | GI50 (Leukemia cell line panel; 5-dose assay, read-out: GI50 values, range over the leukemia panel): 1.52 to 3.38 µM | GI50 (Leukemia cell line panel; 5-dose assay, read-out: Sub Panel MID b (mean GI50 of panel)): 2.59 µM | Mean % GI ([1]; 10 µM): 60% | Selectivity Ratio (MID a:MID b) ([1]; 5-dose assay): 0.85 | GI50 [1, 6]: 5.77 µM | Mean % GI (Melanoma cell line panel; 10 µM): 76.24% | Selectivity Ratio (MID a:MID b) (Melanoma cell line panel; 5-dose assay): 1.06 | GI50 (Melanoma cell line panel; [6]): 4.59 µM | Mean % GI ([2]; 10 µM): 72.17% | Selectivity Ratio (MID a:MID b) ([2]; 5-dose assay): 1.07 | GI50 [2, 6]: 4.55 µM | Mean % GI ([3]; 10 µM): 69.71% | Selectivity Ratio (MID a:MID b) ([3]; 5-dose assay): 1.19 | GI50 [3, 6]: 4.12 µM

Source: publication PMC8398451, “Molecular Engineering of Curcumin, an Active Constituent of Curcuma longa L. (Turmeric) of the Family Zingiberaceae with Improved Antiproliferative Activity” (Plants, 2021)
